Experimental data published in PubChem BioAssay (NCI).
Where “and” joins values, the source holds several entries; their conditions need not be identical. Identical values can stand only once.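 Dose response: 5 concentrations. Exposure: 48 h. Format: 96-well plates. Endpoint: linear interpolation; highest concentration if not reached. GI50 = concentration required for 50% inhibition of growth. Definition used: TGI = concentration required for complete inhibition of growth.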

Key:
Assay in all cases: DTP human tumour cell line panel, 48 h
[1] = system: A549 NSCLC
[2] = system: CAKI-1 renal
[3] = system: HCC-2998 colon
[4] = system: HL-60(TB) leukemia
[5] = system: MALME-3M melanoma
[6] = system: OVCAR-8 ovarian
[7] = system: SF-295 CNS
[8] = system: SK-MEL-2 melanoma
[9] = system: SR leukemia
[10] = system: SW-620 colon

Row | SMILES | GI50 [1] | TGI [1] | GI50 [2] | TGI [2] | GI50 [3] | TGI [3] | GI50 [4] | TGI [4] | GI50 [5] | TGI [5] | GI50 [6] | TGI [6] | GI50 [7] | TGI [7] | GI50 [8] | TGI [8] | GI50 [9] | TGI [9] | GI50 [10] | TGI [10]
1 | COc1ccc(Nc2cc(C)nc(NCc3ccccc3)n2)cc1 | 6.53 µM | 24.7 µM | 3.9 µM | 17.2 µM | 2.02 µM | 4.04 µM | 4.91 µM | 27.6 µM | 2.36 µM | 9.2 µM | 6.71 µM | 35.2 µM | 2.57 µM | 15.3 µM | 6.34 µM | 23.8 µM | 3.32 µM | 13 µM | 4.2 µM | 20 µM
2 | [Cl][Hg][c]1ccc(Cl)s1 | 18.7 µM | 60.9 µM | 1.69 µM | 3.29 µM | 11.9 µM | 26.4 µM | 2.1 µM | 6.29 µM | 1.3 µM | 2.94 µM | 2.51 µM | 6.25 µM | 11.5 µM | 25.7 µM | 4.65 µM | 17.6 µM | 0.319 µM |  | 1.04 µM | 2.59 µM
3 | O=C(O)C(C(=O)O)P(=S)(S)c1ccccc1 (configuration not stated) |  | > 100 µM |  | > 100 µM |  | > 100 µM |  | > 100 µM |  | > 100 µM |  | > 100 µM |  | > 100 µM |  | > 100 µM |  | > 100 µM |  | > 100 µM
4 | C=C1C(=O)O[C@H]2[C@H]1CC/C(C=Nc1c(N)cc(C(F)(F)F)cc1C(F)(F)F)=C\CC[C@@]1(C)O[C@@H]21 | 1.95 µM | 3.74 µM | 1.49 µM | 2.98 µM | 1.69 µM | 3.3 µM | 0.801 µM | 27.2 µM | 2 µM | 3.95 µM | 1.79 µM | 9.85 µM | 5.1 µM | 17.1 µM | 1.41 µM | 3.12 µM | 0.567 µM | 5.17 µM | 1.23 µM | 2.95 µM
5 | Cn1nc(C(F)(F)F)cc1-c1c[nH]c(OCc2ccc(Cl)cc2)c(-c2ccc(Cl)c(C(F)(F)F)c2)c1=O | 1.45 µM | > 50 µM | 0.917 µM | 2.91 µM | 1.23 µM | 6.56 µM | 1.09 µM | 2.55 µM | 1.09 µM | 3.07 µM | 1.19 µM | > 50 µM | 0.887 µM | 2.18 µM | 0.761 µM | 2.52 µM | 1.09 µM | > 14.3 µM | 1.44 µM | 7.74 µM
6 | CCNC(=O)Nc1ccc(Oc2ccnc3ccc4c(ccn4C)c23)cc1 | 44.1 µM | > 100 µM | 0.236 µM | 0.961 µM | 28.2 µM | 63.9 µM | > 100 µM | > 100 µM | 38.3 µM | > 100 µM | 23 µM | > 100 µM | 18.9 µM | 72.1 µM | 45.8 µM | > 100 µM | 12.1 µM | > 100 µM | > 100 µM | > 100 µM
7 | N#Cc1c(N)n2c(nc1=Nc1ccc(Cl)cc1)sc1cc(Cl)ccc12 |  |  | 22.4 µM | > 100 µM | 2.23 µM | 8.94 µM |  | > 100 µM | 6.35 µM and 14.8 µM | > 100 µM |  |  | 4.12 µM and 3.04 µM | 42.9 µM | 2.01 µM |  | 2.26 µM | > 100 µM | 3.42 µM | > 100 µM
8 | CN(C)CCCCC(C(=O)CBr)(c1ccccc1)c1ccccc1 | 4.93 µM | 18.8 µM | 1.42 µM | 2.84 µM | 2.44 µM | 5.55 µM | 1.22 µM | 3.95 µM | 1.44 µM | 3.62 µM | 2.52 µM | 8.48 µM | 5.56 µM | 19.2 µM | 2.18 µM | 6.02 µM | 2.12 µM | 7.02 µM | 1.67 µM | 5.58 µM
9 | CCc1nc(N)nc(N)c1-c1ccc2nnn(O)c2c1 |  | > 100 µM |  | > 100 µM |  | > 100 µM |  | > 100 µM |  |  |  | > 100 µM |  | > 100 µM |  | > 100 µM |  | > 100 µM |  | > 100 µM
10 | O=C(NCc1cccnc1)C1COc2cc(-c3cc(=O)c4ccccc4o3)ccc2O1 (configuration not stated) |  | > 100 µM |  | > 84.3 µM |  | > 100 µM |  | > 46.4 µM |  | > 100 µM |  | > 55 µM |  | > 69.8 µM |  | > 68.7 µM |  | > 100 µM |  | > 100 µM
